Here are results for 13 compounds from US20250114460A1, “NOVEL PLK1 DEGRADATION INDUCING COMPOUND” (UPPTHERA, INC., priority 2021, published 2025).

Holding throughout (type): cell-based
One assay concerns NCI-H526 cell line. Nature of the assay: Cell viability assay for H526 cell (EZ-Cytox). The conditions noted are these: Homo sapiens, NCI-H526, 120 h; H526 cells, 5 days, 3000 nM to 0.46 nM. In short, it runs like this:
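NCI-H526 cells were exposed to compound in CO2 incubator culture for 5 days. Viability was read by EZ-Cytox absorbance at 450 nm after 3 min shaking, giving IC50 values.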

In a further assay the target is T1, PLK1 (Homo sapiens, UniProt P53350).
T1 construct: endogenous in cells; host or cells: HeLa LgBit (Plk1-HiBit KI): HeLa stably expressing LgBit, with a CRISPR/Cas9 knock-in of HiBit at the endogenous PLK1 locus
T1 sequence (P53350 whole entry): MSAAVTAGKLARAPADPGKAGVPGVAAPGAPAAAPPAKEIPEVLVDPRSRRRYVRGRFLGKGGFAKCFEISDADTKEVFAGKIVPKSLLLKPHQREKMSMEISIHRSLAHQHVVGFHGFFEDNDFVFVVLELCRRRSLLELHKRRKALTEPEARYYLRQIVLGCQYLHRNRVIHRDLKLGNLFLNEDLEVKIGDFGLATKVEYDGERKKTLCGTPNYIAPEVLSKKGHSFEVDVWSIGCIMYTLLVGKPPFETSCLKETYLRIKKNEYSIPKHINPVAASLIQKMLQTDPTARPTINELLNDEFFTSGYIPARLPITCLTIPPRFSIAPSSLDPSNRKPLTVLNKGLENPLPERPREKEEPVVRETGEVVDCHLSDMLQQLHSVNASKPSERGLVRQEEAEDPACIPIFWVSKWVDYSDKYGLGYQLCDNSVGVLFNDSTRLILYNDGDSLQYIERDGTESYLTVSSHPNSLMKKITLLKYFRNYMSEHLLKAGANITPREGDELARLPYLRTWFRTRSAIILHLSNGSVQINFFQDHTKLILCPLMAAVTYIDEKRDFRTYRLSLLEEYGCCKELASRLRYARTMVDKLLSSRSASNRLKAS
The assay is described as follows: Luciferase assay for PLK1 in HeLa LgBit (Plk1-HiBit KI) cell line. The conditions noted are these: 300 nM compound, luminescence after 9 hours. Summed up:
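HeLa cells stably expressing LgBit, with HiBit knocked in at the C-terminus of endogenous Plk1, released from a 24 h 2 mM thymidine block and grown 18 h. Endurazine added, then compound at 300 nM; luminescence tracked in real time, expressed as ratio to DMSO.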
(In general: HiBiT is a short tag that completes a luciferase, so light tracks the accessible tagged protein.)

The test system of another assay is MRC-5 cell line. The assay is described as follows: Cell viability assay for MRC-5 cell line (EZ-Cytox). The conditions noted are these: Homo sapiens, MRC5, 120 h; MRC-5 normal cell line, 5 days, 10000 nM to 1.52 nM; N.D. = no cytotoxicity until 10 μM; read-out: Activity: IC50 value of Exemplary Compound to MRC-5 cell line. As for the experimental part: 4. Cell Viability Assay for MRC-5 Cell Line
(1) Culture of MRC-5 Cell Line
Passage of cultured cells was maintained within P15.
(2) Treatment of Compounds of the Present Invention
Then, it was cultured in 37° C.
(3) Cytotoxicity Experiment
CO2 incubator for 4 hours.

As to `COc1cc(C(=O)NN2CCC(N3CC4(CCN(c5cccc6c5C(=O)N(C5CCC(=O)NC5=O)C6=O)CC4)C3)CC2)ccc1Nc1ncc2c(n1)N(C(C)C)CC(F)(F)C(=O)N2C` (stereo not drawn) [Compound 213, 4-((7,7-difluoro-9-isopropyl-5-methyl-6-oxo-6,7,8,9-tetrahydro-5H-pyrimido[4,5-b][1,4]diazepin-2-yl)amino)-N-(4-(7-(2-(2,6-dioxopiperidin-3-yl)-1,3-dioxoisoindolin-4-yl)-2,7-diazaspiro[3.5]nonan-2-yl)piperidin-1-yl)-3-methoxybenzamide], the concentration for half-maximal inhibition (IC50) with NCI-H526 cell line is less than 0.03 µM; in the assay with MRC-5 cell line, more than 10 µM. Besides, the “Activity: ratio of the luminescense value of each Exemplary Compound treatment group to DMSO treatment group” value (shortened to “Activity: ratio”) on PLK1 was “++ (++<0.6)”.

Turning to `COc1cc(C(=O)NC2CCN(CC3CN(c4cc5c(cc4F)C(=O)N(C4CCC(=O)NC4=O)C5=O)C3)CC2)ccc1Nc1ncc2c(n1)N(C(C)C)CC(F)(F)C(=O)N2C` (stereo not drawn) [Compound 162, 4-((7,7-difluoro-9-isopropyl-5-methyl-6-oxo-6,7,8,9-tetrahydro-5H-pyrimido[4,5-b][1,4]diazepin-2-yl)amino)-N-(1-((1-(2-(2,6-dioxopiperidin-3-yl)-6-fluoro-1,3-dioxoisoindolin-5-yl)azetidin-3-yl)methyl)piperidin-4-yl)-3-methoxybenzamide], the half-maximal inhibitory concentration (IC50) is less than 0.1 µM in the assay on NCI-H526 cell line and more than 10 µM in the assay with MRC-5 cell line. Besides, on PLK1, the “Activity: ratio” value is on record as “++ (++<0.6)”.

With `COc1cc(C(=O)N[C@H]2CC[C@H](N3CCN(c4cccc5c4C(=O)N(C4CCC(=O)NC4=O)C5=O)CC3)CC2)ccc1Nc1ncc2c(n1)N(C1CCCC1)CC(F)(F)C(=O)N2C` (stereo partly drawn) [Compound 131, 4-((9-cyclopentyl-7,7-difluoro-5-methyl-6-oxo-6,7,8,9-tetrahydro-5H-pyrimido[4,5-b][1,4]diazepin-2-yl)amino)-N-((1r,4r)-4-(4-(2-(2,6-dioxopiperidin-3-yl)-1,3-dioxoisoindolin-4-yl)piperazin-1-yl)cyclohexyl)-3-methoxybenzamide], the IC50 in the assay on NCI-H526 cell line was less than 0.05 µM; in the assay with MRC-5 cell line it was more than 10 µM. Also, the “Activity: ratio” value at PLK1 is reported as “++ (++<0.6)”.

`COc1cc(C(=O)NC2CCN(C(=O)CCCOc3cccc4c3C(=O)N(C3CCC(=O)NC3=O)C4=O)CC2)c(F)cc1Nc1ncc2c(n1)N(C1CCCC1)CC(F)(F)C(=O)N2C` (stereo not drawn) [Compound 30, 4-((9-cyclopentyl-7,7-difluoro-5-methyl-6-oxo-6,7,8,9-tetrahydro-5H-pyrimido[4,5-b][1,4]diazepin-2-yl)amino)-N-(1-(4-((2-(2,6-dioxopiperidin-3-yl)-1,3-dioxoisoindolin-4-yl)oxy)butanoyl)piperidin-4-yl)-2-fluoro-5-methoxybenzamide]: the IC50 in the assay with NCI-H526 cell line is less than 0.1 µM; in the assay with MRC-5 cell line it was more than 10 µM. The “Activity: ratio” value on PLK1 is given as “++ (++<0.6)”.

On to `COc1cc(C(=O)NN2CCC(N3CCN(c4cccc5c4C(=O)N(C4CCC(=O)NC4=O)C5=O)CC3)C2)ccc1Nc1ncc2c(n1)N(C(C)C)CC(F)(F)C(=O)N2C` (stereo not drawn) [Compound 155, 4-((7,7-difluoro-9-isopropyl-5-methyl-6-oxo-6,7,8,9-tetrahydro-5H-pyrimido[4,5-b][1,4]diazepin-2-yl)amino)-N-(3-(4-(2-(2,6-dioxopiperidin-3-yl)-1,3-dioxoisoindolin-4-yl)piperazin-1-yl)pyrrolidin-1-yl)-3-methoxybenzamide], for which the IC50 in the assay on NCI-H526 cell line was less than 0.1 µM; with MRC-5 cell line it was more than 10 µM. For the same compound, the “Activity: ratio” value at PLK1 is “+ (+<0.7)”.

Turning to `COc1cc(C(=O)NC2CCN(C(=O)CCCOc3cccc4c3C(=O)N(C3CCC(=O)NC3=O)C4=O)CC2)ccc1Nc1ncc2c(n1)N(C1CCCC1)CC(F)(F)C(=O)N2C` (stereo not drawn) [Compound 31, 4-((9-cyclopentyl-7,7-difluoro-5-methyl-6-oxo-6,7,8,9-tetrahydro-5H-pyrimido[4,5-b][1,4]diazepin-2-yl)amino)-N-(1-(4-((2-(2,6-dioxopiperidin-3-yl)-1,3-dioxoisoindolin-4-yl)oxy)butanoyl)piperidin-4-yl)-3-methoxybenzamide], the IC50 with NCI-H526 cell line is less than 0.1 µM; in the assay with MRC-5 cell line, more than 10 µM. Besides, the “Activity: ratio” value on PLK1 is listed as “+++ (+++: <0.3)”.

In the case of `COc1cc(C(=O)N2CCN(CCCN3CCN(c4ccc5c(c4)C(=O)N(C4CCC(=O)NC4=O)C5=O)CC3)CC2)ccc1Nc1ncc2c(n1)N(C1CCCC1)CC(F)(F)C(=O)N2C` (stereo not drawn) [Compound 90, 5-(4-(3-(4-(4-((9-cyclopentyl-7,7-difluoro-5-methyl-6-oxo-6,7,8,9-tetrahydro-5H-pyrimido[4,5-b][1,4]diazepin-2-yl)amino)-3-methoxybenzoyl)piperazin-1-yl)propyl)piperazin-1-yl)-2-(2,6-dioxopiperidin-3-yl)isoindoline-1,3-dione], the concentration for half-maximal inhibition (IC50) with NCI-H526 cell line was less than 0.4 µM; in the assay with MRC-5 cell line, more than 10 µM. Besides, at PLK1, the “Activity: ratio” value is given as “++ (++<0.6)”.

For the compound `COc1cc(C(=O)NC2CCN(CCOc3cccc4c3C(=O)N(C3CCC(=O)NC3=O)C4=O)CC2)ccc1Nc1ncc2c(n1)N(C1CCCC1)CC(F)(F)C(=O)N2C` (stereo not drawn) [Compound 5, 4-((9-cyclopentyl-7,7-difluoro-5-methyl-6-oxo-6,7,8,9-tetrahydro-5H-pyrimido[4,5-b][1,4]diazepin-2-yl)amino)-N-(1-(2-((2-(2,6-dioxopiperidin-3-yl)-1,3-dioxoisoindolin-4-yl)oxy)ethyl)piperidin-4-yl)-3-methoxybenzamide], the 50% inhibitory concentration (IC50) with NCI-H526 cell line is less than 0.4 µM; with MRC-5 cell line, 20 µM. Also, the “Activity: ratio” value at PLK1 is reported as “++ (++<0.6)”.

Consider `COc1cc2c(cc1Nc1ncc3c(n1)N(C1CCCC1)CC(F)(F)C(=O)N3C)CCN(C1CCN(C(=O)CCN3CCN(c4cccc5c4C(=O)N(C4CCC(=O)NC4=O)C5=O)CC3)CC1)C2=O` (stereo not drawn) [Compound 102, 4-(4-(3-(4-(6-((9-cyclopentyl-7,7-difluoro-5-methyl-6-oxo-6,7,8,9-tetrahydro-5H-pyrimido[4,5-b][1,4]diazepin-2-yl)amino)-7-methoxy-1-oxo-3,4-dihydroisoquinolin-2(1H)-yl)piperidin-1-yl)-3-oxopropyl)piperazin-1-yl)-2-(2,6-dioxopiperidin-3-yl)isoindoline-1,3-dione], for which the IC50 was less than 0.4 µM in the assay on NCI-H526 cell line and 14.4 µM with MRC-5 cell line. The “Activity: ratio” value at PLK1 is given as “++ (++<0.6)”.

As for `COc1cc(C(=O)NC2CCN(C(=O)CCN3CCN(c4ccc5c(c4)CN(C4CCC(=O)NC4=O)C5=O)CC3)CC2)ccc1Nc1ncc2c(n1)N(C(C)C)CC(F)(F)C(=O)N2C` (stereo not drawn) [Compound 130, 4-((7,7-difluoro-9-isopropyl-5-methyl-6-oxo-6,7,8,9-tetrahydro-5H-pyrimido[4,5-b][1,4]diazepin-2-yl)amino)-N-(1-(3-(4-(2-(2,6-dioxopiperidin-3-yl)-1-oxoisoindolin-5-yl)piperazin-1-yl)propanoyl)piperidin-4-yl)-3-methoxybenzamide], the 50% inhibitory concentration (IC50) is less than 0.03 µM in the assay on NCI-H526 cell line and more than 10 µM in the assay with MRC-5 cell line. For the same compound, at PLK1, the “Activity: ratio” value is recorded as “++ (++<0.6)”.

As for `COc1cc(C(=O)N(C)C2CCN(C(=O)CCN3CCN(c4cccc5c4C(=O)N(C4CCC(=O)NC4=O)C5=O)CC3)CC2)ccc1Nc1ncc2c(n1)N(C1CCCC1)CC(F)(F)C(=O)N2C` (stereo not drawn) [Compound 77, 4-((9-cyclopentyl-7,7-difluoro-5-methyl-6-oxo-6,7,8,9-tetrahydro-5H-pyrimido[4,5-b][1,4]diazepin-2-yl)amino)-N-(1-(3-(4-(2-(2,6-dioxopiperidin-3-yl)-1,3-dioxoisoindolin-4-yl)piperazin-1-yl)propanoyl)piperidin-4-yl)-3-methoxy-N-methylbenzamide], the figures for the concentration for half-maximal inhibition (IC50) in the assay on NCI-H526 cell line and in the assay with MRC-5 cell line were less than 0.1 µM and more than 10 µM, respectively. Moreover, the “Activity: ratio” value at PLK1 is given as “++ (++<0.6)”.

Take `COc1cc(C(=O)NN2CCN(C3CN(c4ccc5c(c4)C(=O)N(C4CCC(=O)NC4=O)C5=O)C3)CC2)ccc1Nc1ncc2c(n1)N(C1CCCC1)CC(F)(F)C(=O)N2C` (stereo not drawn) [Compound 201, 4-((9-cyclopentyl-7,7-difluoro-5-methyl-6-oxo-6,7,8,9-tetrahydro-5H-pyrimido[4,5-b][1,4]diazepin-2-yl)amino)-N-(4-(1-(2-(2,6-dioxopiperidin-3-yl)-1,3-dioxoisoindolin-5-yl)azetidin-3-yl)piperazin-1-yl)-3-methoxybenzamide]: the values for the IC50 in the assay with NCI-H526 cell line and in the assay with MRC-5 cell line were less than 0.05 µM and more than 10 µM, respectively. On PLK1, the “Activity: ratio” value is reported as “+++ (+++: <0.3)”.

Regarding `COc1cc(C(=O)NC2CCN(C(=O)CSc3cccc4c3C(=O)N(C3CCC(=O)NC3=O)C4=O)CC2)c(F)cc1Nc1ncc2c(n1)N(C1CCCC1)CC(F)(F)C(=O)N2C` (stereo not drawn) [Compound 41, 4-((9-cyclopentyl-7,7-difluoro-5-methyl-6-oxo-6,7,8,9-tetrahydro-5H-pyrimido[4,5-b][1,4]diazepin-2-yl)amino)-N-(1-(2-((2-(2,6-dioxopiperidin-3-yl)-1,3-dioxoisoindolin-4-yl)thio)acetyl)piperidin-4-yl)-2-fluoro-5-methoxybenzamide], the IC50 was less than 0.2 µM in the assay on NCI-H526 cell line and more than 10 µM in the assay with MRC-5 cell line. The “Activity: ratio” value on PLK1 is on record as “++ (++<0.6)”.

For orientation: IC50 means the concentration that inhibits the measured activity by half.
